Assay [1] deals with influenza A virus (A/PR/8/34). Kind of assay: MDCK cytopathic effect (CPE) cell protection assay, ATP detection. In kind it is cell-based. Particulars: Influenza A virus, PR/8, MDCK. A general note: Damage to the host cells serves as the signal in cytopathic effect assays.
Assay [2] deals with influenza A virus (A/PR/8/34). The assay is described as follows: microbe, parasite or virus in culture. In kind it is cell-based.
The mark [3] stands for this setting: 72 h, Table 1, MDCK cells, A/PR/8/34, 72 hours, 50% cell protection, mean all, class symbol, read-out: MDCK IC50.
[4] abbreviates: Influenza A virus, PR/8, Table 1, mean all, class symbol, read-out: bDNA EC99.
Where [5] appears, read: Influenza A virus, PR/8, Table 1, viral RNA 50% of control wells, mean all, class symbol, read-out: bDNA EC50.
Setting [6] is: Table 2, class symbol in brackets, read-out: MDCK cell IC50 (uM), class.
Where [7] appears, read: Table 2, comparison compounds of WO2005/095400, mean value, read-out: MDCK cell IC50.

Structures are written as SMILES. Like-named read-outs stand apart in the source and are kept apart here. A value given as a limit tells only on which side of the number the result lay.

Consider `CC1(C(CC(=O)O)Nc2nc(-c3n[nH]c4ncc(F)cc34)ncc2F)CCCC1` (racemic) [Compound 12, (+/−)-3-(5-fluoro-2-(5-fluoro-1H-pyrazolo[3,4-b]pyridin-3-yl)pyrimidin-4-ylamino)-3-(1-methylcyclopentyl)propanoic acid], for which the IC50 in assay [1] (setting [3]) is less than 0.3 µM. For the same compound, the EC99 in assay [2] (setting [4]) was less than 0.3 µM. Also, the EC50 in assay [2] (setting [5]) was less than 300 nM.
Consider `CC(C)(C)C(CCO)Nc1nc(-c2c[nH]c3ncc(F)cc23)c(C#N)cc1F` (racemic) [Compound 41, (+/−)-5-fluoro-2-(5-fluoro-1H-pyrrolo[2,3-b]pyridin-3-yl)-6-(1-hydroxy-4,4-dimethylpentan-3-ylamino)pyridine-3-carbonitrile], for which the IC50 in assay [1] (setting [3]) is less than 0.3 µM. In assay [2] (setting [4]), the EC99 was in the range of 0.3 to 3.3 µM. Further, the EC50 in assay [2] (setting [5]) was less than 300 nM.
Consider `O=C(O)CC(Nc1nc(-c2c[nH]c3ncc(F)cc23)ncc1F)C1CCC1` (racemic) [Compound 44, (+/−)-3-cyclobutyl-3-((5-fluoro-2-(5-fluoro-1H-pyrrolo[2,3-b]pyridin-3-yl)pyrimidin-4-yl)amino)propanoic acid], for which the IC50 in assay [1] (setting [3]) was less than 0.3 µM. In assay [2] (setting [4]), the EC99 was in the range of 0.3 to 3.3 µM. Further, in assay [2] (setting [5]), the EC50 lay in the range of 300 to 3300 nM.
Regarding `CC(C)(C)C(CCO)Nc1nc(-c2c[nH]c3ncc(F)cc23)ncc1F` (racemic) [Compound 45, (+/−)-3-((5-fluoro-2-(5-fluoro-1H-pyrrolo[2,3-b]pyridin-3-yl)pyrimidin-4-yl)amino)-4,4-dimethylpentan-1-ol], in assay [1] (setting [3]), the IC50 was 0.3 to 3.3 µM. In addition, the EC99 in assay [2] (setting [4]) is greater than 3.3 µM. Moreover, in assay [2] (setting [5]), the EC50 was less than 300 nM.
`CC(C)(C)C(Cc1nn[nH]n1)Nc1nc(-c2c[nH]c3ncc(F)cc23)ncc1F` (racemic) [Compound 55, (+/−)-N-(3,3-dimethyl-1-(2H-tetrazol-5-yl)butan-2-yl)-5-fluoro-2-(5-fluoro-1H-pyrrolo[2,3-b]pyridin-3-yl)pyrimidin-4-amine]: the IC50 in assay [1] (setting [3]) was less than 0.3 µM. For the same compound, in assay [2] (setting [4]), the EC99 lay within 0.3 to 3.3 µM. The EC50 in assay [2] (setting [5]) is less than 300 nM.
With `CC(C)(C)C(Cc1cc(O)no1)Nc1nc(-c2c[nH]c3ncc(F)cc23)ncc1F` (racemic) [Compound 62, (+/−)-5-(2-((5-fluoro-2-(5-fluoro-1H-pyrrolo[2,3-b]pyridin-3-yl)pyrimidin-4-yl)amino)-3,3-dimethylbutyl)isoxazol-3-ol], the IC50 in assay [1] (setting [3]) is less than 0.3 µM. For the same compound, in assay [2] (setting [4]), the EC99 lay within 0.3 to 3.3 µM. In addition, the EC50 in assay [2] (setting [5]) fell in the range of 300 to 3300 nM.
Take `CC(C)(C)C(Cc1nc(=O)o[nH]1)Nc1nc(-c2c[nH]c3ncc(F)cc23)ncc1F` (racemic) [Compound 65, (+/−)-3-(2-((5-fluoro-2-(5-fluoro-1H-pyrrolo[2,3-b]pyridin-3-yl)pyrimidin-4-yl)amino)-3,3-dimethylbutyl)-1,2,4-oxadiazol-5(2H)-one]: the IC50 in assay [1] (setting [3]) is less than 0.3 µM. In addition, in assay [2] (setting [4]), the EC99 was in the range of 0.3 to 3.3 µM. For the same compound, the EC50 in assay [2] (setting [5]) is less than 300 nM.
In the case of `O=C(O)CC(Nc1nc(-c2c[nH]c3ncc(F)cc23)ncc1F)C1(C(F)(F)F)CCCC1` (racemic) [Compound 75, (+/−)-3-(5-fluoro-2-(5-fluoro-1H-pyrrolo[2,3-b]pyridin-3-yl)pyrimidin-4-ylamino)-3-(1-(trifluoromethyl)cyclopentyl)propanoic acid], the IC50 in assay [1] (setting [3]) was greater than 3.3 µM. The EC99 in assay [2] (setting [4]) is greater than 3.3 µM. Also, the EC50 in assay [2] (setting [5]) lay within 300 to 3300 nM.
As to `CC(C)(CF)C(CC(=O)O)Nc1nc(-c2c[nH]c3ncc(F)cc23)ncc1F` (racemic) [Compound 76, (+/−)-5-Fluoro-3-((5-fluoro-2-(5-fluoro-1H-pyrrolo[2,3-b]pyridin-3-yl)pyrimidin-4-yl)amino)-4,4-dimethylpentanoic acid], the IC50 in assay [1] (setting [3]) was 0.3 to 3.3 µM; in assay [1] (exemplary data, MDCK cell protection, read-out: IC50), 0.423 µM. Also, the EC99 in assay [2] (setting [4]) is 0.3 to 3.3 µM; in assay [2] (exemplary data, bDNA) it was 1.4 µM. The EC50 in assay [2] (setting [5]) was less than 300 nM; in assay [2] (Influenza A virus, PR/8, exemplary data, bDNA, read-out: EC50), 250 nM.
In the case of `CCOC(=O)CC(Nc1nc(-c2c[nH]c3ncc(F)cc23)ncc1F)C1(C)CCCCC1` (racemic) [Compound 77, (+/−)-ethyl 3-(5-fluoro-2-(5-fluoro-1H-pyrrolo[2,3-b]pyridin-3-yl)pyrimidin-4-ylamino)-3-(1-methylcyclohexyl)propanoate], the IC50 in assay [1] (setting [3]) is greater than 3.3 µM. Besides, the EC99 in assay [2] (setting [4]) is greater than 3.3 µM. Also, the EC50 in assay [2] (setting [5]) lay within 300 to 3300 nM.
`CC(C)(C(CC(=O)O)Nc1nc(-c2c[nH]c3ncc(F)cc23)ncc1F)C(F)(F)F` (racemic) [Compound 79, (+/−)-5,5,5-Trifluoro-3-(5-fluoro-2-(5-fluoro-1H-pyrrolo[2,3-b]pyridin-3-yl)pyrimidin-4-ylamino)-4,4-dimethylpentanoic acid]: in assay [1] (setting [3]), the IC50 was 0.3 to 3.3 µM. The EC99 in assay [2] (setting [4]) lay within 0.3 to 3.3 µM. For the same compound, in assay [2] (setting [5]), the EC50 is less than 300 nM.
`CC1(C(CC(=O)O)Nc2nc(-c3c[nH]c4ncc(Cl)cc34)ncc2F)CCCCC1` (racemic) [Compound 83, (+/−)-3-(2-(5-Chloro-1H-pyrrolo[2,3-b]pyridin-3-yl)-5-fluoropyrimidin-4-ylamino)-3-(1-methylcyclohexyl)propanoic acid]: the IC50 in assay [1] (setting [3]) lay within 0.3 to 3.3 µM. Also, the EC99 in assay [2] (setting [4]) was 0.3 to 3.3 µM. The EC50 in assay [2] (setting [5]) is less than 300 nM.
As for `CC(CF)(CF)C(CC(=O)O)Nc1nc(-c2c[nH]c3ncc(F)cc23)ncc1F` (racemic) [Compound 84, (+/−)-5-Fluoro-3-((5-fluoro-2-(5-fluoro-1H-pyrrolo[2,3-b]pyridin-3-yl)pyrimidin-4-yl)amino)-4-(fluoromethyl)-4-methylpentanoic acid], the IC50 in assay [1] (setting [3]) lay in the range of 0.3 to 3.3 µM. Further, the EC99 in assay [2] (setting [4]) is greater than 3.3 µM. In addition, the EC50 in assay [2] (setting [5]) is 300 to 3300 nM.
For `CC(C)(C)C(CC(=O)O)Nc1nc(-c2c[nH]c3ncc(F)cc23)ncc1Cl` (racemic) [Compound 85, (+/−)-3-((5-chloro-2-(5-fluoro-1H-pyrrolo[2,3-b]pyridin-3-yl)pyrimidin-4-yl)amino)-4,4-dimethylpentanoic acid], the 50% inhibitory concentration (IC50) in assay [1] (setting [3]) is 0.3 to 3.3 µM. The EC99 in assay [2] (setting [4]) is greater than 3.3 µM. Moreover, in assay [2] (setting [5]), the EC50 was less than 300 nM.
For `CNS(=O)(=O)C[C@@H](Nc1nc(-c2c[nH]c3ncc(F)cc23)c(C#N)cc1F)C(C)(C)C` [Compound 26, (S)-2-(5-Cyano-3-fluoro-6-(5-fluoro-1H-pyrrolo[2,3-b]pyridin-3-yl)pyridin-2ylamino)-N,3,3-trimethylbutane-1-sulfonamide], the EC99 in assay [2] (setting [4]) was less than 0.3 µM. Also, the 50% effective concentration (EC50) in assay [2] (setting [5]) is less than 300 nM.
For `CN(C)S(=O)(=O)C[C@@H](Nc1nc(-c2c[nH]c3ncc(F)cc23)c(C#N)cc1F)C(C)(C)C` [Compound 27, (S)-2-(5-Cyano-3-fluoro-6-(5-fluoro-1H-pyrrolo[2,3-b]pyridin-3-yl)pyridin-2ylamino)-N,N,3,3-tetramethylbutane-1-sulfonamide], in that order: 0.3 to 3.3 µM and less than 300 nM.
With `CC(C)(C)[C@@H](CS(=O)(=O)NC1CC1)Nc1nc(-c2c[nH]c3ncc(F)cc23)c(C#N)cc1F` [Compound 28, (S)-2-(5-Cyano-3-fluoro-6-(5-fluoro-1H-pyrrolo[2,3-b]pyridin-3-yl)pyridin-2ylamino)-N-cyclopropyl-3,3-dimethylbutane-1-sulfonamide], the EC99 in assay [2] (setting [4]) was less than 0.3 µM. Besides, the EC50 in assay [2] (setting [5]) is less than 300 nM.
For `COCCNS(=O)(=O)C[C@@H](Nc1nc(-c2c[nH]c3ncc(F)cc23)c(C#N)cc1F)C(C)(C)C` [Compound 29, (S)-2-((5-cyano-3-fluoro-6-(5-fluoro-1H-pyrrolo[2,3-b]pyridin-3-yl)pyridin-2-yl)amino)-N-(2-methoxyethyl)-3,3-dimethylbutane-1-sulfonamide], in that order: 0.3 to 3.3 µM and less than 300 nM.
For `CC(C)(C)[C@@H](CS(N)(=O)=O)Nc1nc(-c2c[nH]c3ncc(F)cc23)c(C#N)cc1F` [Compound 30, (S)-2-((5-cyano-3-fluoro-6-(5-fluoro-1H-pyrrolo[2,3-b]pyridin-3-yl)pyridin-2-yl)amino)-3,3-dimethylbutane-1-sulfonamide], in that order: less than 0.3 µM and less than 300 nM.
Taken in the same sequence, the figures for `CCCNS(=O)(=O)C[C@@H](Nc1nc(-c2c[nH]c3ncc(F)cc23)c(C#N)cc1F)C(C)(C)C` [Compound 31, (S)-2-((5-cyano-3-fluoro-6-(5-fluoro-1H-pyrrolo[2,3-b]pyridin-3-yl)pyridin-2-yl)amino)-3,3-dimethyl-N-propylbutane-1-sulfonamide] were less than 0.3 µM and less than 300 nM.
For `CC(C)(C)C(C[S@+]([O-])CC(=O)O)Nc1nc(-c2c[nH]c3ncc(F)cc23)ncc1F` (stereo partly drawn) [Compound 64, 2-((S)-2-(5-fluoro-2-(5-fluoro-1H-pyrrolo[2,3-b]pyridin-3-yl)pyrimidin-4-ylamino)-3,3-dimethylbutylsulfinyl)ethanoic acid], the EC99 in assay [2] (setting [4]) is greater than 3.3 µM. Further, in assay [2] (setting [5]), the EC50 is less than 300 nM.
Consider `CC(O)C[C@@H](Nc1nc(-c2c[nH]c3ncc(F)cc23)ncc1F)C(C)(C)C` (stereo partly drawn) [Compound 72, (4R)-4-((5-Fluoro-2-(5-fluoro-1H-pyrrolo[2,3-b]pyridin-3-yl)pyrimidin-4-yl)amino)-5,5-dimethylhexan-2-ol], for which the 99% effect concentration (EC99) in assay [2] (setting [4]) is greater than 3.3 µM.
In the case of `Clc1cnc2[nH]cc(-c3cccc(NC4CCCCC4)n3)c2c1` [Compound C1, reference compound], the IC50 is greater than 3.3 µM in assay [1] (setting [6]) and greater than 20 µM in assay [1] (setting [7]).
Consider `Clc1cnc2[nH]cc(-c3cccc(NCC4CCCNC4)n3)c2c1` (stereo not shown) [Compound C2, reference compound], for which the IC50 was greater than 3.3 µM in assay [1] (setting [6]) and greater than 20 µM in assay [1] (setting [7]).

Broadly, the IC50 is the concentration needed to halve the response being measured. As usually defined, the EC99 is the concentration at which the effect reaches the 99% level. In general, EC50 refers to the midpoint of the concentration-response curve.

Source of the values: patent US10875855B2 (priority 2011, dated 2020).
